Results: patent publication US8138168B1 (Takeda Pharmaceutical Company Limited, priority 2007, dated 2012)

Target: T1, Recombinant human renin (Homo sapiens, UniProt P00797)
T1 construct: isolate the active form (residues 67-406); made in house; host or cells: FreeStyle 293-F cells (transient expression of pcDNA3.1(+)/hREN)
T1 sequence (P00797 67-406): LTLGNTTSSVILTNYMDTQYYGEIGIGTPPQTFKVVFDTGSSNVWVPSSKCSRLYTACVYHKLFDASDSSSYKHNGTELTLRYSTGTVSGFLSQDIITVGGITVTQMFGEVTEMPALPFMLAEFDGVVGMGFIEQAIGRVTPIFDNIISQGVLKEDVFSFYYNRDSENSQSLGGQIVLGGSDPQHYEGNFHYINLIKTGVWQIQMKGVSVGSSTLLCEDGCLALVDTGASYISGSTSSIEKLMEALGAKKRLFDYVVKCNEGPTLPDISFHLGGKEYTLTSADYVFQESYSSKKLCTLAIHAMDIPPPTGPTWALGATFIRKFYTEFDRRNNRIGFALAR
Experiment: In vitro enzymatic activity assay of renin inhibitors (fluorogenic peptide substrate)
Format: biochemical
Conditions: for IC50: read-out: IC50 of Exemplified Compounds Against Renin
Outline: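 Recombinant human renin (3 nM final) pre-incubated 10 min at 37 °C with compounds in pH 7.4 Hepes/EDTA/DTT/0.1 mg/mL BSA/Brij35 buffer (optionally plus 2% BSA), 5% DMSO final; fluorogenic QXL520/HiLyteFluo488 peptide substrate added.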

| SMILES | IC50 [nM] | Eutomer / distomer designation of the separated stereoisomers (isomers separated by preparative SFC, more or less active isomer as renin inhibitor) |
| --- | --- | --- |
| COCCCn1c([C@@H]2CCCN(C(=O)C[C@H](N)CNC(=O)c3ccc4c(c3)CCO4)C2)nc2ccccc21 [Compound 271, N-((S)-2-amino-4-((R)-3-(1-(3-methoxypropyl)-1H-benzo[d]imidazol-2-yl)piperidin-1-yl)-4-oxobutyl)-2,3-dihydrobenzofuran-5-carboxamide] | 100 to 1000 | – |
| COCCCn1c(C2CCCN(C(=O)C[C@@H](N)Cc3ccc(Cl)cc3)C2)nc2ccccc21 (stereo partly drawn) [Compound 67, (3S)-3-amino-4-(4-chlorophenyl)-1-(3-(1-(3-methoxypropyl)-1H-benzo[d]imidazol-2-yl)piperidin-1-yl)butan-1-one] | > 1000 | – |
| COCCCn1c([C@@H]2CCCN(C(=O)C[C@H](N)Cc3ccc(-c4ccc(C(=O)N5CCNC(=O)C5)cc4)cc3)C2)nc2ccccc21 [Compound 189, 4-(4′-((R)-2-amino-4-((R)-3-(1-(3-methoxypropyl)-1H-benzo[d]imidazol-2-yl)piperidin-1-yl)-4-oxobutyl)biphenylcarbonyl)piperazin-2-one] | < 100 | – |
| COCCCn1c([C@@H]2CCCN(C(=O)C[C@H](N)Cc3ccc(-c4ccc(C(=O)OC)cc4)cc3)C2)nc2ccccc21 [Compound 123, methyl 4′-((R)-2-amino-4-((R)-3-(1-(3-methoxypropyl)-1H-benzo[d]imidazol-2-yl)piperidin-1-yl)-4-oxobutyl)biphenyl-4-carboxylate] | < 100 | – |
| COCCCn1c([C@@H]2CCCN(C(=O)[C@@H]3CN(S(=O)(=O)c4ccc(Br)cc4Cl)C[C@H]3N)C2)nc2ccccc21 [Compound 342, ((3R,4S)-4-amino-1-(4-bromo-2-chlorophenylsulfonyl)pyrrolidin-3-yl)((R)-3-(1-(3-methoxypropyl)-1H-benzo[d]imidazol-2-yl)piperidin-1-yl)methanone] | 100 to 1000 | – |
| COCCCn1c([C@@H]2CCCN(C(=O)C[C@H](N)Cc3ccc(-c4ccc(C(=O)NCC(C)(C)O)cc4)cc3)C2)nc2ccccc21 [Compound 188, 4′-((R)-2-amino-4-((R)-3-(1-(3-methoxypropyl)-1H-benzo[d]imidazol-2-yl)piperidin-1-yl)-4-oxobutyl)-N-(2-hydroxy-2-methylpropyl)biphenyl-4-carboxamide] | < 100 | – |
| COCCCn1c([C@@H]2CCCN(C(=O)C[C@H](N)Cc3ccc(N4CCC(CCO)CC4)cc3)C2)nc2ccccc21 [Compound 236, (R)-3-amino-4-(4-(4-(2-hydroxyethyl)piperidin-1-yl)phenyl)-1-((R)-3-(1-(3-methoxypropyl)-1H-benzo[d]imidazol-2-yl)piperidin-1-yl)butan-1-one] | < 100 | – |
| COCCCn1c([C@@H]2CCCN(C(=O)C[C@H](N)CNS(=O)(=O)c3ccc(OC)cc3)C2)nc2ccccc21 [Compound 321, N-((S)-2-amino-4-((R)-3-(1-(3-methoxypropyl)-1H-benzo[d]imidazol-2-yl)piperidin-1-yl)-4-oxobutyl)-4-methoxybenzenesulfonamide] | 100 to 1000 | – |
| Cc1nc2ccccc2n1[C@@H]1CCCN(C(=O)C[C@H](N)Cc2ccc3ccccc3c2)C1 [Compound 245, (R)-3-amino-1((R)-3-(2-methyl-1H-benzo[d]imidazol-1-yl)piperidin-1-yl)-4-(naphthalen-2-yl)butan-1-one] | > 1000 | Distomer |
| N[C@@H](CC(=O)N1CCCC(c2nc3ccccc3[nH]2)C1)Cc1ccc(Cl)c(Cl)c1 (stereo partly drawn) [Compound 36, (3R)-1-(3-(1H-benzo[d]imidazol-2-yl)piperidin-1-yl)-3-amino-4-(3,4-dichlorophenyl)butan-1-one] | > 1000 | – |
| COCCCn1c([C@@H]2CCCN(C(=O)C[C@H](N)c3cccnc3)C2)nc2ccccc21 [Compound 119, (S)-3-amino-1((R)-3-(1-(3-methoxypropyl)-1H-benzo[d]imidazol-2-yl)piperidin-1-yl)-3-(pyridin-3-yl)propan-1-one] | 100 to 1000 | – |
| COCCCn1c([C@@H]2CCCN(C(=O)C[C@H](N)Cc3ccc4ccccc4c3)C2)nc2cccc(OC)c21 [Compound 108, (R)-3-amino-1-((R)-3-(7-methoxy-1-(3-methoxypropyl)-1H-benzo[d]imidazol-2-yl)piperidin-1-yl)-4-(naphthalen-2-yl)butan-1-one] | 100 to 1000 | – |
| N[C@@H](CC(=O)N1CCCC(c2nc3ccccc3[nH]2)C1)c1cccc(Cl)c1 (stereo partly drawn) [Compound 30, (3S)-1-(3-(1H-benzo[d]imidazol-2-yl)piperidin-1-yl)-3-amino-3-(3-chlorophenyl)propan-1-one] | > 1000 | – |
| COCCCn1c([C@@H]2CCCN(C(=O)C[C@H](N)Cc3ccc(C(=O)NC4CCCCC4)cc3)C2)nc2ccccc21 [Compound 203, 4-((R)-2-amino-4-((R)-3-(1-(3-methoxypropyl)-1H-benzo[d]imidazol-2-yl)piperidin-1-yl)-4-oxobutyl)-N-cyclohexylbenzamide] | 100 to 1000 | – |

Further lines, results first:

| IC50 [nM] | Eutomer / distomer designation of the separated stereoisomers (isomers separated by preparative SFC, more or less active isomer as renin inhibitor) | SMILES |
| --- | --- | --- |
| 100 to 1000 | – | CC(=O)NCCn1c([C@@H]2CCCN(C(=O)C[C@H](N)Cc3ccc(-c4ccc(N)nc4)cc3)C2)nc2ccccc21 [Compound 446, N-(2-(2-((R)-1-((R)-3-amino-4-(4-(6-aminopyridin-3-yl)phenyl)butanoyl)piperidin-3-yl)-1H-benzo[d]imidazol-1-yl)ethyl)acetamide] |
| < 100 | – | COCCCn1c([C@@H]2CCCN(C(=O)C[C@H](N)Cc3ccc(-c4ccc5c(c4)CCO5)cc3)C2)nc2c(F)cccc21 [Compound 490, (R)-3-amino-4-(4-(2,3-dihydrobenzofuran-5-yl)phenyl)-1-((R)-3-(4-fluoro-1-(3-methoxypropyl)-1H-benzo[d]imidazol-2-yl)piperidin-1-yl)butan-1-one] |
| < 100 | – | COCCCn1c([C@@H]2CCCN(C(=O)C[C@H](N)Cc3ccc(-c4ccc5c(c4)NC(=O)C5)cc3)C2)nc2c(F)cccc21 [Compound 459, 6-(4-((R)-2-amino-4-((R)-3-(4-fluoro-1-(3-methoxypropyl)-1H-benzo[d]imidazol-2-yl)piperidin-l-yl)-4-oxobutyl)phenyl)indolin-2-one] |
| 100 to 1000 | – | COCCCn1c([C@@H]2CCCN(C(=O)[C@@H]3CN(S(=O)(=O)c4ccc(-c5ccccc5)cc4)C[C@H]3N)C2)nc2ccccc21 [Compound 348, ((3R,4S)-4-amino-1-(biphenyl-4-ylsulfonyl)pyrrolidin-3-yl)((R)-3-(1-(3-methoxypropyl)-1H-benzo[d]imidazol-2-yl)piperidin-1-yl)methanone] |
| > 1000 | – | COCCCn1c([C@@H]2CCCN(C(=O)[C@@H]3CN(C(=O)NC4CCCC4)C[C@H]3N)C2)nc2ccccc21 [Compound 399, (3S,4R)-3-amino-N-cyclopentyl-4-((R)-3-(1-(3-methoxypropyl)-1H-benzo[d]imidazol-2-yl)piperidine-1-carbonyl)pyrrolidine-1-carboxamide] |
| 100 to 1000 | – | COCCCn1c([C@@H]2CCCN(C(=O)[C@@H]3CN(S(=O)(=O)c4cc(C)c(Cl)cc4C)C[C@H]3N)C2)nc2ccccc21 [Compound 344, ((3R,4S)-4-amino-1-(4-chloro-2,5-dimethylphenylsulfonyl)pyrrolidin-3-yl)((R)-3-(1-(3-methoxypropyl)-1H-benzo[d]imidazol-2-yl)piperidin-1-yl)methanone] |
| < 100 | – | COCCCn1c([C@@H]2CCCN(C(=O)C[C@H](N)Cc3ccc(-c4ccc5oc(N)nc5c4)cc3)C2)nc2c(F)cccc21 [Compound 463, (R)-3-amino-4-(4-(2-aminobenzo[d]oxazol-5-yl)phenyl)-1-((R)-3-(4-fluoro-1-(3-methoxypropyl)-1H-benzo[d]imidazol-2-yl)piperidin-1-yl)butan-1-one] |
